{"source": "patent US8841413B2", "about": "“Antidiabetic compounds” (Cadila Healthcare Limited, priority 2006, dated 2014)", "key": {"C57BL/6J mice": {"tested_on": "C57BL/6J mice", "experiment": "Acute single dose 120-min time-course experiment, in vivo glucose reduction in C57BL/6J mice", "set-up": "unit not given here", "settings": "male C57BL/6J mice, Mean ± SEM", "description": "All the animal experiments were carried out according to the internationally valid guidelines following approval by the ‘Zydus Research Center animal ethical committee’. […] Two days prior to the study, the animals were randomised and divided into 5 groups (n=6), based upon their fed glucose levels. On the day of experiment, food was withdrawn from all the cages, water was given ad-libitum and were kept for overnight fasting. Vehicle (normal saline)/test/standard compounds were administered intraperitoneally (i.p.) or orally, on a body weight basis. […] Blood samples were centrifuged and the separated serum was immediately subjected for the glucose estimation. Serum for insulin estimation was stored at −70° C. until used for the insulin estimation. The glucose estimation was carried out with DPEC-GOD/POD method (Ranbaxy Fine Chemicals Limited, Diagnostic division, India), using Spectramax-190, in 96-microwell plate reader (Molecular devices Corporation, Sunnyvale, Calif.). […] The AUC and BCAUC obtained from graphs were analyzed for one way ANOVA, followed by Dunnett's post test, using Graph Pad prism software. Furthermore, the insulin estimation was carried out using rat/mouse insulin ELISA kit (Linco research, Mo. USA)."}, "DPP IV": {"biological_target": "DPP IV (Homo sapiens, UniProt P27487)", "sequence (P27487 whole entry, species assumed)": "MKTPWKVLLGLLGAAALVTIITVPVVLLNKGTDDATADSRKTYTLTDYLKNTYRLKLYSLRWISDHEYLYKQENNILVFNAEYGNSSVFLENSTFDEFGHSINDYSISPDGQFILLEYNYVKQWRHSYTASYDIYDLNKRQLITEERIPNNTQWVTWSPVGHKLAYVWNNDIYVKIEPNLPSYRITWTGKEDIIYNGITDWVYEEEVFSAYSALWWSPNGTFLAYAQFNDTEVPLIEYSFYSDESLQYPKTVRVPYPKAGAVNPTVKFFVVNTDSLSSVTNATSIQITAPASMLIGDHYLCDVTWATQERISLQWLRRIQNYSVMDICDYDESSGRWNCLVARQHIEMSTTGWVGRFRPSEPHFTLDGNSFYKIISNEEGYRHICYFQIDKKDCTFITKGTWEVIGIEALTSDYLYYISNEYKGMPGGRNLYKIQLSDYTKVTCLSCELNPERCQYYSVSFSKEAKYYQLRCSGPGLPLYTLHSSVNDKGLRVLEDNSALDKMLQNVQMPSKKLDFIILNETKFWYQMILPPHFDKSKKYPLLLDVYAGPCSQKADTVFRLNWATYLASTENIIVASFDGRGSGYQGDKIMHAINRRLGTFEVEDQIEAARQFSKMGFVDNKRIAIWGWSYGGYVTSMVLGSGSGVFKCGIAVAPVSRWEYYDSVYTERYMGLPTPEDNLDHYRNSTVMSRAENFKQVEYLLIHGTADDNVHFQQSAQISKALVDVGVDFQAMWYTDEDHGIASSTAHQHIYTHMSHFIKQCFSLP", "experiment": "Stability against DPP IV enzyme", "assay_type": "in vitro ADME", "settings": "2 μM, 37° C.", "description": "(§1) Reactions were terminated by the addition of TFA/H2O (15 mL, 10% (v/v)). […] The column was equilibrated with TFA/H2O, at a flow rate of 1 mL/min. […] The absorbance was monitored at 206 nm using UV detector and peaks were collected manually prior to ESI-MS analysis."}, "[1]": {"experiment": "Stability in simulated intestinal fluid", "assay_type": "in vitro ADME", "settings": "2 μM, 37° C., pH 7.5", "description": "as §1"}, "[2]": {"experiment": "Stability in simulated gastric fluid", "assay_type": "in vitro ADME", "settings": "2 μM, 37° C., pH 1.5, pepsin", "description": "as §1"}, "[3]": {"experiment": "Stability against liver microsomes", "assay_type": "in vitro ADME, human", "settings": "2 μM, 37° C.", "description": "as §1"}, "Human GLP-1 receptor": {"biological_target": "T1, Human GLP-1 receptor (Homo sapiens, UniProt P43220)", "T1 construct": "The full-length cDNA was cloned in pcDNA3.1(+); expressed in transfected cells", "T1 sequence (P43220 24-463)": "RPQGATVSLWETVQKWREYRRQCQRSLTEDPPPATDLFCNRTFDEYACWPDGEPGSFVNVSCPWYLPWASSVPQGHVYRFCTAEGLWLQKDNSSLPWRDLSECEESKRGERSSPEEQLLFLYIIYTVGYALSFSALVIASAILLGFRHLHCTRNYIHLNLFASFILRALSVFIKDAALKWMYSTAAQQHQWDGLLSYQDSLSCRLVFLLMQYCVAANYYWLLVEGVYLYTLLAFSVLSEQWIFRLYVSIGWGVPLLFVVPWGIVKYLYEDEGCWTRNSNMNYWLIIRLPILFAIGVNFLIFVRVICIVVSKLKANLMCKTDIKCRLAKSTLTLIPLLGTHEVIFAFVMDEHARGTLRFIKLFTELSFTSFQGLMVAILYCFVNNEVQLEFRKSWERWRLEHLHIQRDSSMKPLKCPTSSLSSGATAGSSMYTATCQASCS", "assay_type": "cell-based", "description": "The novel peptidomimetics were screened for Human GLP-1 receptor (HGLP-1 R) agonist activity (in vitro), using the cAMP cell-based assay, in stably transfected CHO/human GLP1R cells. […] CHO cells were grown in Ham's F12 medium containing L-Glutamine (2 mM), HEPES (25 mM), NaHCO3 (1.1 g/L) and supplemented with NewBorn Calf Serum (NBCS; 10%), Penicillin (50 U/ml (v/v)) and Streptomycin (50 ug/ml (v/v)). Cells were split every 3 days 1:8.\nThe cDNA encoding the human GLP-1 receptor was isolated by RT-PCR according to standard protocol. The full-length cDNA was cloned in pcDNA3.1(+). […] Clones expressing the receptor were generated by G418 (800 μg/ml active, Sigma) selection. The stable clones were thereafter maintained at 500 ug/ml (G418). The selected clone was used between passages 9-25 for cAMP assays.\nThe trypsin was inactivated using Ham's F12 medium containing 10% NBCS and the cells were suspended in 2 ml of complete medium. […] The medium was aspirated off from the 12 well plate and the cells were washed once using Ham's F12 (plain). […] The cells were incubated with the test compounds for 30 min in humidified atmosphere and 37° C. After the incubation, the medium was removed and cells were washed once with plain Ham's F12. Subsequently, the cells were lysed by adding 500 ul of ice cold 0.1 N HCl to each well and shaking for 30 minutes at 200 rpm. […] The total cAMP was estimated from the sample according to the manufacturer's protocol using Cyclic AMP immunoassay kit (R&D systems, Minneapolis. MN). The remaining supernatant is used to determine the protein concentration using micro BCA (Sigma). Data is calculated as percent of control (Vehicle: water) and expressed as Mean±SD."}, "[4]": {"experiment": "Stability in human plasma", "assay_type": "in vitro ADME", "settings": "2 μM, 37° C.", "description": "as §1"}}, "note": "Read-outs that look alike come from different tables or passages of the source."}
{"smiles": "CCc1cc(OC)ccc1-c1ccc(CC(NC(=O)[C@H](CC(=O)O)NC(=O)[C@H](CO)NC(=O)[C@@H](NC(=O)C(C)(Cc2ccccc2F)NC(=O)[C@@H](NC(=O)CNC(=O)[C@H](CCC(N)=O)NC(=O)C2(NC(=O)[C@@H](N)Cc3c[nH]cn3)CC2)[C@@H](C)O)[C@@H](C)O)C(=O)NC(Cc2ccc(-c3ccccc3C)nc2)C(N)=O)cc1", "note": "(single isomer, unassigned) [Seq. ID. No. 34, H-(ACP)-QGT-(α-Me-2F-Phe)-TSD-Bip(OMe)-Bip(Pyr)]", "values": [{"measurement": "blood glucose level", "setting": "C57BL/6J mice; 10 nM/kg, i.p, 0 min", "value": "180 ± 4.2"}, {"measurement": "blood glucose level", "setting": "C57BL/6J mice; 10 nM/kg, i.p, 30 min", "value": "113 ± 3.2"}, {"measurement": "blood glucose level", "setting": "C57BL/6J mice; 10 nM/kg, i.p, 60 min", "value": "112 ± 2.4"}, {"measurement": "blood glucose level", "setting": "C57BL/6J mice; 10 nM/kg, i.p, 120 min", "value": "110 ± 1.9"}, {"measurement": "blood glucose level", "setting": "C57BL/6J mice; 2 μM/kg, oral, 0 min", "value": "184 ± 2.2"}, {"measurement": "blood glucose level", "setting": "C57BL/6J mice; 2 μM/kg, oral, 30 min", "value": "118 ± 3.3"}, {"measurement": "blood glucose level", "setting": "C57BL/6J mice; 2 μM/kg, oral, 60 min", "value": "112 ± 4.4"}, {"measurement": "blood glucose level", "setting": "C57BL/6J mice; 2 μM/kg, oral, 120 min", "value": "110 ± 2.9"}]}
{"smiles": "CCc1cc(OC)ccc1-c1ccc(CC(NC(=O)[C@H](CC(=O)O)NC(=O)[C@H](CO)NC(=O)[C@@H](NC(=O)C(C)(Cc2ccccc2F)NC(=O)[C@@H](NC(=O)CNC(=O)[C@H](CCC(N)=O)NC(=O)C2(NC(=O)[C@@H](N)Cc3c[nH]cn3)CC2)[C@@H](C)O)[C@@H](C)O)C(=O)NC(Cc2ccc(-c3ccccc3F)cc2)C(N)=O)cc1", "note": "(single isomer, unassigned) [Seq. ID. No. 35, H-(ACP)-QGT-(α-Me-2F-Phe)-TSD-Bip(OMe)-Bip(2F)]", "values": [{"measurement": "blood glucose level", "setting": "C57BL/6J mice; 10 nM/kg, i.p, 0 min", "value": "182 ± 4.1"}, {"measurement": "blood glucose level", "setting": "C57BL/6J mice; 10 nM/kg, i.p, 30 min", "value": "112 ± 3.1"}, {"measurement": "blood glucose level", "setting": "C57BL/6J mice; 10 nM/kg, i.p, 60 min", "value": "113 ± 2.6"}, {"measurement": "blood glucose level", "setting": "C57BL/6J mice; 10 nM/kg, i.p, 120 min", "value": "111 ± 1.8"}, {"measurement": "blood glucose level", "setting": "C57BL/6J mice; 2 μM/kg, oral, 0 min", "value": "183 ± 2.1"}, {"measurement": "blood glucose level", "setting": "C57BL/6J mice; 2 μM/kg, oral, 30 min", "value": "118 ± 3.4"}, {"measurement": "blood glucose level", "setting": "C57BL/6J mice; 2 μM/kg, oral, 60 min", "value": "113 ± 4.6"}, {"measurement": "blood glucose level", "setting": "C57BL/6J mice; 2 μM/kg, oral, 120 min", "value": "111 ± 2.8"}]}
{"smiles": "CCc1cc(OC)ccc1-c1ccc(CC(NC(=O)[C@H](CC(=O)O)NC(=O)[C@H](CO)NC(=O)[C@@H](NC(=O)C(C)(Cc2ccccc2F)NC(=O)[C@@H](NC(=O)CNC(=O)[C@H](CCC(N)=O)NC(=O)C2(NC(=O)[C@@H](N)Cc3c[nH]cn3)CC2)[C@@H](C)O)[C@@H](C)O)C(=O)NC(Cc2ccc(-c3ccccc3C(F)(F)F)cc2)C(N)=O)cc1", "note": "(single isomer, unassigned) [Seq. ID. No. 36, H-(ACP)-QGT-(α-Me-2F-Phe)-TSD-Bip(OMe)-Bip(2CF3)]", "values": [{"measurement": "blood glucose level", "setting": "C57BL/6J mice; 10 nM/kg, i.p, 0 min", "value": "180 ± 2.8"}, {"measurement": "blood glucose level", "setting": "C57BL/6J mice; 10 nM/kg, i.p, 30 min", "value": "110 ± 3.6"}, {"measurement": "blood glucose level", "setting": "C57BL/6J mice; 10 nM/kg, i.p, 60 min", "value": "112 ± 2.3"}, {"measurement": "blood glucose level", "setting": "C57BL/6J mice; 10 nM/kg, i.p, 120 min", "value": "112 ± 1.6"}, {"measurement": "blood glucose level", "setting": "C57BL/6J mice; 2 μM/kg, oral, 0 min", "value": "183 ± 2.3"}, {"measurement": "blood glucose level", "setting": "C57BL/6J mice; 2 μM/kg, oral, 30 min", "value": "119 ± 3.0"}, {"measurement": "blood glucose level", "setting": "C57BL/6J mice; 2 μM/kg, oral, 60 min", "value": "112 ± 4.3"}, {"measurement": "blood glucose level", "setting": "C57BL/6J mice; 2 μM/kg, oral, 120 min", "value": "109 ± 2.6"}]}
{"smiles": "CCc1cc(OC)ccc1-c1ccc(CC(NC(=O)[C@H](CC(=O)O)NC(=O)[C@H](CO)NC(=O)[C@@H](NC(=O)[C@H](Cc2ccccc2)NC(=O)[C@@H](NC(=O)CNC(=O)[C@H](CCC(N)=O)NC(=O)C(C)(C)NC(=O)[C@@H](N)Cc2c[nH]cn2)[C@@H](C)O)[C@@H](C)O)C(=O)NC(Cc2ccc(-c3ccccc3C)cc2)C(N)=O)cc1", "note": "(single isomer, unassigned) [compound 13]", "values": [{"measurement": "% degradation in 24 h when incubated with DPP-IV enzyme", "setting": "DPP IV; 24 h", "value": "00", "unit": "%"}, {"measurement": "half-life", "setting": "DPP IV; read-out: half-life (t1/2) with DPP-IV enzyme", "value": "> 24", "unit": "h"}, {"measurement": "% degradation in 24 h when incubated with simulated intestinal fluid", "setting": "[1]; 24 h", "value": "00", "unit": "%"}, {"measurement": "half-life", "setting": "[1]; simulated gi fluid, read-out: half-life (t1/2) in simulated intestinal fluid", "value": "> 24", "unit": "h"}, {"measurement": "% degradation in 24 h when incubated with simulated gastric fluid", "setting": "[2]; 24 h", "value": 50, "unit": "%"}, {"measurement": "half-life", "setting": "[2]; simulated gi fluid, read-out: half-life (t1/2) in simulated gastric fluid", "value": 4, "unit": "h"}, {"measurement": "% degradation in 24 h when incubated with liver microsomes", "setting": "[3]; 24 h", "value": 86, "unit": "%"}, {"measurement": "half-life", "setting": "[3]; human, microsomes, read-out: half-life (t1/2) with liver microsomes", "value": 2, "unit": "h"}, {"measurement": "Human GLP-1 R activity (cAMP release), % activity with respect to control", "setting": "Human GLP-1 receptor; 1 nM test compound", "value": "60 ± 0.12", "unit": "%"}, {"measurement": "Human GLP-1 R activity (cAMP release), % activity with respect to control", "setting": "Human GLP-1 receptor; 10 nM test compound", "value": "92 ± 0.15", "unit": "%"}, {"measurement": "Human GLP-1 R activity (cAMP release), % activity with respect to control", "setting": "Human GLP-1 receptor; 100 nM test compound", "value": "98 ± 0.18", "unit": "%"}, {"measurement": "Human GLP-1 R activity (cAMP release), % activity with respect to control", "setting": "Human GLP-1 receptor; 1 μM test compound", "value": "99 ± 0.03", "unit": "%"}, {"measurement": "Human GLP-1 R activity (cAMP release), % activity with respect to control", "setting": "Human GLP-1 receptor; 10 μM test compound", "value": "99 ± 0.09", "unit": "%"}, {"measurement": "% degradation in 24 h when incubated with human plasma", "setting": "[4]; 24 h", "value": "00", "unit": "%"}, {"measurement": "half-life", "setting": "[4]; human, plasma, read-out: half-life (t1/2) in human plasma", "value": "> 24", "unit": "h"}]}
